Structures can show the parent of a compound that is named as a salt.
Legend:
rat FAAH = rat FAAH (Rattus norvegicus (Rat), UniProt P97612); assay: Assay Method 3: FAAH assay, cells transfected with rat FAAH; format: biochemical; conditions: T84 or rat FAAH-transfected SK-N-MC cell homogenate, 3H-AEA tracer 80 nM, 1 h at rt
Description: Assay Method 3 A. Transfection of Cells with Rat FAAH
(§1) A 10-cm tissue culture dish with a confluent monolayer of SK-N-MC cells was split 2 days (d) prior to transfection. Using sterile technique, the media was removed and the cells were detached from the dish by the addition of trypsin. One fifth of the cells were then placed onto a new 10-cm dish. Cells were grown in a 37° C. incubator with 5% CO2 in Minimal Essential Media Eagle with 10% Fetal Bovine Serum. After 2 d, cells were approximately 80% confluent. These cells were removed from the dish with trypsin and pelleted in a clinical centrifuge. The pellet was re-suspended in 400 μL complete media and transferred to an electroporation cuvette with a 0.4 cm gap between the electrodes. Supercoiled rat FAAH cDNA (1 μg) was added to the cells and mixed. The voltage for the electroporation was set at 0.25 kV, and the capacitance was set at 960 μF. After electroporation, the cells were diluted into complete media (10 mL) and plated onto four 10-cm dishes. Because of the variability in the efficiency of electroporation, four different concentrations of cells were plated. The ratios used were 1:20, 1:10, and 1:5, with the remainder of the cells being added to the fourth dish. The cells were allowed to recover for 24 h before adding the selection media (complete media with 600 μg/mL G418). After 10 d, dishes were analyzed for surviving colonies of cells. Dishes with well-isolated colonies were used. Cells from individual colonies were isolated and tested.
(§2) T84 frozen cell pellets or transfected SK-N-MC cells (contents of 1×15 cm culture dishes) were homogenized in 50 mL of FAAH assay buffer (125 mM Tris, 1 mM EDTA, 0.2% Glycerol, 0.02% Triton X-100, 0.4 mM Hepes, pH 9). The assay mixture consisted of 50 μL of the cell homogenate, 10 μL of the test compound, and 40 μL of anandamide [1-^3H-ethanolamine] (^3H-AEA, Perkin-Elmer, 10.3 Ci/mmol), which was added last, for a final tracer concentration of 80 nM. The reaction mixture was incubated at rt for 1 h. During the incubation, 96-well Multiscreen filter plates (catalog number MAFCNOB50; Millipore, Bedford, Mass., USA) were loaded with 25 μL of activated charcoal (Multiscreen column loader, catalog number MACL09625, Millipore) and washed once with 100 μL of MeOH. Also during the incubation, 96-well DYNEX MicroLite plates (catalog number NL510410) were loaded with 100 μL of MicroScint40 (catalog number 6013641, Packard Bioscience, Meriden, Conn., USA). After the 1 h incubation, 60 μL of the reaction mixture were transferred to the charcoal plates, which were then assembled on top of the DYNEX plates using Centrifuge Alignment Frames (catalog number MACF09604, Millipore). The unbound labeled ethanolamine was centrifuged through to the bottom plate (5 min at 2000 rpm), which was preloaded with the scintillant, as described above. The plates were sealed and left at rt for 1 h before counting on a Hewlett Packard TopCount.

FAAH [1] = target: T1, FAAH (Homo sapiens (Human), UniProt O00519); assay: Assay Method 1: FAAH assay, T84 cell homogenate, 3H-anandamide hydrolysis; format: biochemical; conditions: 3H-AEA tracer 200 nM, 1 h at rt
Method in brief: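 Homogenate of human T84 cells in pH 9 Tris/EDTA buffer with 0.02% Triton X-100 was incubated with compound and 200 nM final 3H-anandamide for 1 h at rt. Released [3H]ethanolamine was separated from substrate through activated charcoal by centrifugation and quantified by scintillation counting.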

FAAH [2] = target: T1, FAAH; assay: Assay Method 2: FAAH assay, cells transfected with human FAAH; format: biochemical; conditions: T84 or human FAAH-transfected SK-N-MC cell homogenate, 3H-AEA tracer 80 nM, 1 h at rt
Description: Assay Method 2 A. Transfection of Cells with Human FAAH
as §1, with “Supercoiled human” for “Supercoiled rat”, “([…])” for “(1 μg)”
as §2, with “[…]” for “40 μL”

rats [3] = conditions: WO 04/033652; cited from earlier work
FAAH [4] = target: T1, FAAH; conditions: WO 04/033652; cited from earlier work
CREAE mice = conditions: Baker 2001; cited from earlier work
rats [5] = conditions: Kathuria 2003; cited from earlier work
rats [6] = conditions: rat, Kathuria 2003; cited from earlier work

Sequence of rat FAAH (P97612 whole entry): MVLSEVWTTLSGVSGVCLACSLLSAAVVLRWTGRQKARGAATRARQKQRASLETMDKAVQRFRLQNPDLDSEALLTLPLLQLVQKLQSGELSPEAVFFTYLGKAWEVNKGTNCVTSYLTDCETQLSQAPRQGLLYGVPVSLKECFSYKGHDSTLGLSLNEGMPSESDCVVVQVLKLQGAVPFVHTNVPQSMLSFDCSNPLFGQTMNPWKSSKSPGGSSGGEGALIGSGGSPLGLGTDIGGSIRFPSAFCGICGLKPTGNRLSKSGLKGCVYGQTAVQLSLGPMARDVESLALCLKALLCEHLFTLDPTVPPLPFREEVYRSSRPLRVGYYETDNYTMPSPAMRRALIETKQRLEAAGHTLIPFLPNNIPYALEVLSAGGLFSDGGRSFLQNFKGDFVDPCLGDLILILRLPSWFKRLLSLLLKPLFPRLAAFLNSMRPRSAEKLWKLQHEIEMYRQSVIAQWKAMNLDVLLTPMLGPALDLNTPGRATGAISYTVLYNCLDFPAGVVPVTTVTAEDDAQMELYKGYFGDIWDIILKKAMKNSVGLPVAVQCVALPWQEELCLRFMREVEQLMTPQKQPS
T1 sequence (O00519 whole entry): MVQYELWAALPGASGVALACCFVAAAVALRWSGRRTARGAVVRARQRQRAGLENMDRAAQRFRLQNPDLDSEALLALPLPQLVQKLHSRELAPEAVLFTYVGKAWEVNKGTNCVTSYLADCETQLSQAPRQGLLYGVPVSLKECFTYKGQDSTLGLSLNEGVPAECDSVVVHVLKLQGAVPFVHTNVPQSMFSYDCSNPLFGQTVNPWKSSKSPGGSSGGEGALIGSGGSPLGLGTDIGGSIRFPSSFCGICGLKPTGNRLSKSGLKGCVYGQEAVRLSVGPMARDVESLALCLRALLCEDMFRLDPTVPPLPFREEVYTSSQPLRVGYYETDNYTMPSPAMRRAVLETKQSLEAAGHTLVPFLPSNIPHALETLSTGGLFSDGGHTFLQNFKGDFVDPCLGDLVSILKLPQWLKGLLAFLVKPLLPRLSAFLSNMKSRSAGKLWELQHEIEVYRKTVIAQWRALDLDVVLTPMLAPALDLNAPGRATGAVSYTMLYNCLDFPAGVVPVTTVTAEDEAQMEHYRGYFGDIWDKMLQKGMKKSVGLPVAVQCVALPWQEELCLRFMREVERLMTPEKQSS

With O=C(Nc1ccccc1)N1CCN(Cc2ccccc2O)CC1 [Example 41, 4-(2-Hydroxy-benzyl)-piperazine-1-carboxylic acid phenylamide] the IC50 (rat FAAH) was 10000 nM, the IC50 (FAAH [1]) was 1300 nM and the IC50 (FAAH [2]) was 3000 nM.

In the case of O=C(CCCCCCc1ccccc1)c1ncc(-c2ccccn2)o1 [OL-135], the analgesic activity (rats [3]) is listed as “analgesic activity” and the “inhibition of FAAH” value (FAAH [4]) is listed as “potent inhibitor of FAAH”.

O=C(Nc1ccccc1)N1CCN(Cc2ccc3ccccc3c2O)CC1 [Example 59, 4-(1-Hydroxy-naphthalen-2-ylmethyl)-piperazine-1-carboxylic acid phenylamide] gave an IC50 (rat FAAH) of 50 nM, an IC50 (FAAH [1]) of 21 nM and an IC50 (FAAH [2]) of 16 nM.

Work on O=C(Nc1ccccc1)N1CCN(Cc2cc(Br)ccc2O)CC1 [Example 34, 4-(5-Bromo-2-hydroxy-benzyl)-piperazine-1-carboxylic acid phenylamide] yielded an IC50 (rat FAAH) of 410 nM, an IC50 (FAAH [1]) of 290 nM and an IC50 (FAAH [2]) of 330 nM.

For O=C(Nc1cccnc1)N1CCN(Cc2ccc3c(c2)OCO3)CC1 [Example 146, 4-Benzo[1,3]dioxol-5-ylmethyl-piperazine-1-carboxylic acid pyridin-3-ylamide], the IC50 (rat FAAH) was 6500 nM and the IC50 (FAAH [2]) was 380 nM.

With O=C(Nc1ccncc1)N1CCN(Cc2ccc3c(c2)OCO3)CC1 [Example 147, 4-Benzo[1,3]dioxol-5-ylmethyl-piperazine-1-carboxylic acid pyridin-4-ylamide] the IC50 (rat FAAH) was 10000 nM and the IC50 (FAAH [2]) was 3000 nM.

O=C(Nc1ccccc1)N1CCN(Cc2ccc3ccccc3c2)CC1 [Example 18, 4-Naphthalen-2-ylmethyl-piperazine-1-carboxylic acid phenylamide] showed an IC50 (rat FAAH) of 265 nM, an IC50 (FAAH [1]) of 17 nM and an IC50 (FAAH [2]) of 23 nM.

For O=C(Nc1ncccn1)N1CCN(Cc2cnc3ccccc3c2)CC1 [Example 145, 4-Quinolin-3-ylmethyl-piperazine-1-carboxylic acid pyrimidin-2-ylamide], the IC50 (rat FAAH) was 10000 nM and the IC50 (FAAH [2]) was 8000 nM.

Work on O=C(Nc1nccs1)N1CCN(Cc2cnc3ccccc3c2)CC1 [Example 158, 4-Quinolin-3-ylmethyl-piperazine-1-carboxylic acid thiazol-2-ylamide] yielded an IC50 (rat FAAH) of 10000 nM and an IC50 (FAAH [2]) greater than 10000 nM.

Molecule O=C(Nc1ccccc1)N1CCN(Cc2cnc3ccccc3n2)CC1 [Example 156, 4-Quinoxalin-2-ylmethyl-piperazine-1-carboxylic acid phenylamide] has an IC50 (rat FAAH) of 8000 nM and an IC50 (FAAH [2]) of 840 nM.

Work on COC(=O)c1cccc(NC(=O)N2CCN(Cc3cnc4ccccc4c3)CC2)c1 [Example 106, 3-[(4-Quinolin-3-ylmethyl-piperazine-1-carbonyl)-amino]-benzoic acid methyl ester] yielded an IC50 (rat FAAH) of 2000 nM and an IC50 (FAAH [2]) of 230 nM.

Molecule CC(C)c1ccc(CN2CCN(C(=O)Nc3ccccc3)CC2)cc1 [Example 32, 4-(4-Isopropyl-benzyl)-piperazine-1-carboxylic acid phenylamide] has an IC50 (rat FAAH) of 10000 nM, an IC50 (FAAH [1]) of 220 nM and an IC50 (FAAH [2]) of 380 nM.

For O=C(Nc1ccc(F)cc1)N1CCN(Cc2cnc3ccccc3c2)CC1 [Example 98, 4-Quinolin-3-ylmethyl-piperazine-1-carboxylic acid (4-fluoro-phenyl)-amide], the IC50 (rat FAAH) was 6500 nM, the IC50 (FAAH [1]) was 130 nM and the IC50 (FAAH [2]) was 220 nM.

O=C(Nc1ccccc1)N1CCN(Cc2ccc3c(c2)OC(F)(F)O3)CC1 [Example 52, 4-(2,2-Difluoro-benzo[1,3]dioxol-5-ylmethyl)-piperazine-1-carboxylic acid phenylamide] gave an IC50 (rat FAAH) of 290 nM, an IC50 (FAAH [1]) of 87 nM and an IC50 (FAAH [2]) of 100 nM.

With COC(=O)c1ccccc1NC(=O)N1CCN(Cc2cnc3ccccc3c2)CC1 [Example 105, 2-[(4-Quinolin-3-ylmethyl-piperazine-1-carbonyl)-amino]-benzoic acid methyl ester] the IC50 (rat FAAH) was 10000 nM and the IC50 (FAAH [2]) was greater than 10000 nM.

In the case of CCCCCCCCCCCCCCCCS(=O)(=O)F [AM374], the spasticity (CREAE mice) is listed as “significantly reduce spasticity”.

In the case of O=C(Nc1ccccc1)N1CCN(Cc2ccc(Br)c(Br)c2)CC1 [Example 21, 4-(3,4-Dibromo-benzyl)-piperazine-1-carboxylic acid phenylamide], the IC50 (rat FAAH) is reported as 180 nM, the IC50 (FAAH [1]) is reported as 31 nM and the IC50 (FAAH [2]) is reported as 19 nM.

In the case of NC(=O)c1cccc(-c2cccc(OC(=O)NC3CCCCC3)c2)c1 [URB-597], the “efficacy in anxiety model” value (rats [5]) is given as “efficacy” and the analgesic efficacy (rats [6]) is given as “analgesic efficacy”.

Molecule O=C(O)c1cccc(NC(=O)N2CCN(Cc3cnc4ccccc4c3)CC2)c1 [Example 141, 3-[(4-Quinolin-3-ylmethyl-piperazine-1-carbonyl)-amino]-benzoic acid (potassium salt)] has an IC50 (rat FAAH) of 8000 nM and an IC50 (FAAH [2]) of 5000 nM.

O=C(Nc1ccncn1)N1CCN(Cc2ccc3c(c2)OC(F)(F)O3)CC1 [Example 153, 4-(2,2-Difluoro-benzo[1,3]dioxol-5-ylmethyl)-piperazine-1-carboxylic acid pyrimidin-4-ylamide] showed an IC50 (rat FAAH) of 60000 nM and an IC50 (FAAH [2]) of 1000 nM.

O=C(Nc1ccncc1)N1CCN(Cc2ccc3c(c2)OC(F)(F)O3)CC1 [Example 151, 4-(2,2-Difluoro-benzo[1,3]dioxol-5-ylmethyl)-piperazine-1-carboxylic acid pyridin-4-ylamide] gave an IC50 (rat FAAH) of 2000 nM and an IC50 (FAAH [2]) of 1700 nM.

Reference: US9169224B2, “Piperazinyl and piperidinyl ureas as modulators of fatty acid amide hydrolase” (Janssen Pharmaceutica NV, priority 2004, dated 2015)
